Laboratory results: paper PMC8765320, “Identification of a Proteasome-Targeting Arylsulfonamide with Potential for the Treatment of Chagas’ Disease” (Antimicrobial Agents and Chemotherapy, 2022)
Like-named read-outs stand apart in the source and are kept apart here.

Experiments:
[1] = tested on: T. cruzi amastigotes within Vero cells; assay: Drug sensitivity assay against T. cruzi-infected Vero cells (intracellular amastigotes); assay type: cell-based, Trypanosoma cruzi; conditions: for EC50: Trypanosoma cruzi, Vero
Protocol: The clonal Leishmania donovani cell line LdBOB (derived from MHOM/SD/62/1S-CL2D) was grown as either promastigotes or axenic amastigotes in media specific for each developmental stage, as previously described ([32]). T. cruzi epimastigotes from the Silvio strain (MHOM/BR/78/Silvio; clone X10/7A [33]) were grown at 28°C in RTH/FBS (RPMI 1640 medium supplemented with Trypticase, hemin, HEPES, and 10% heat-inactivated fetal calf serum (FCS) [Fisher Scientific]) ([34]). Bloodstream form T. brucei “single marker” S427 (T7RPOL TETR NEO) were cultured in the presence of G418 (15 μg ml^−1) at 37°C in HMI9-T media in the presence of 5% CO2. HepG2 cells (ECACC 85011430) were obtained from European Collection of Authenticated Cell Culture (ECACC). Cells were maintained in full growth medium (minimal essential medium [MEM] with GlutaMAX (Thermo Fisher), supplemented with 1% MEM nonessential amino acids (Sigma) and 10% heat-inactivated FBS and cultured at 37°C in the presence of 5% CO2. Cells were passaged twice weekly by detaching adherent cells with 0.05% trypsin/EDTA (Sigma) and diluted into fresh media. Cells were never grown beyond 80% confluence. Vero cells (African green monkey kidney cells; ECCAC 84113001) were maintained at 37°C, 5% CO2 in Dulbecco modified Eagle medium (DMEM; Lonza) supplemented with 10% FCS and subcultured every 2 days. T. cruzi metacyclic trypomastigotes were obtained from late-log-phase epimastigote cultures (initial inoculum, 10^6 ml^−1) after ca. 7 to 10 days at 28°C in RTH/FBS. Trypomastigote-rich cultures were incubated with Vero cells overnight at 37°C and 5% CO2 in DMEM/10% FCS. The following day, extracellular parasites were removed by washing the Vero cell monolayer three times. Infected monolayers were maintained at 37°C and in 5% CO2, DMEM/10% FCS was replaced every 48 h until the trypomastigotes reemerged from the Vero cells ([9]).
Drug sensitivity assays against T. cruzi-infected Vero cells were carried out as previously described ([37]); however, in this instance, assays were carried out in 96-well plates. Data were processed using GRAFIT (Erithacus software) and fitted to a two-parameter equation, as described above.

[2] = tested on: mitochondrial T. cruzi malic enzyme (mTcME); assay: Thermal proteome profiling, mTcME; assay type: binding, Trypanosoma cruzi; conditions: lysate, compound at 10× EC50
Protocol: (§1) Aliquots of each lysate were then incubated at designated temperatures (33 to 69°C) and then, for each temperature, insoluble (denatured) proteins were removed. The resulting soluble protein samples were reduced, alkylated, and digested with trypsin prior to derivatization with tandem mass tags. Pooled peptides were fractionated by high-pressure liquid chromatography and analyzed by LC/MS-MS prior to identification and quantitation. The melting points of identified proteins were then established using the TPP software package. Full melt curves were established for 6,771 proteins, representing 39.4% coverage of the T. cruzi proteome.
T. cruzi (X10/7 strain) mid-log-phase epimastigotes (∼1 × 10^10) were harvested by centrifugation (1,912 × g, 15 min, 4°C) and washed with ice-cold PBS (1,912 × g, 5 min, 4°C); finally, the cell pellet was resuspended in 8 ml of ice-cold lysis buffer (1 mM EDTA, 1 mM dithiothreitol [DTT], 100 μM TLCK [Nα-p-tosyl-L-lysine chloromethyl ketone], and 1× Roche EDTA-free COmplete protease inhibitor cocktail in 50 mM potassium phosphate buffer [pH 7.4]). […] The resulting lysate was centrifuged (100,000 × g, 20 min, 4°C), the supernatant was collected, and the protein concentration was determined using a Bio-Rad protein assay. […]

[3] = tested on: L. donovani, T. cruzi, and T. brucei; assay: Phenotypic screening against three kinetoplastids; assay type: cell-based; conditions: range over all three kinetoplastids; read-out: EC50 values against the mammalian stages of these parasites
[4] = tested on: cytosolic T. cruzi malic enzyme (cTcME; C4B63_28g106); assay: Thermal proteome profiling, cTcME; assay type: binding, Trypanosoma cruzi; conditions: for ΔTm 1 / ΔTm 2: malic enzyme C4B63_28g106
Protocol: as §1
T. cruzi (X10/7 strain) mid-log-phase epimastigotes (∼1 × 10^10) were harvested by centrifugation (1,912 × g, 15 min, 4°C) and washed with ice-cold PBS (1,912 × g, 5 min, 4°C); finally, the cell pellet was resuspended in 8 ml of ice-cold lysis buffer (1 mM EDTA, 1 mM dithiothreitol [DTT], 100 μM TLCK [Nα-p-tosyl-L-lysine chloromethyl ketone], and 1× Roche EDTA-free COmplete protease inhibitor cocktail in 50 mM potassium phosphate buffer [pH 7.4]). The cell suspension was submitted to three freeze-thaw cycles in a dry ice/ethanol bath to biologically inactivate the parasites and then submitted to cell disruption (Constant Systems, UK) at 30 kpsi. The resulting lysate was centrifuged (100,000 × g, 20 min, 4°C), the supernatant was collected, and the protein concentration was determined using a Bio-Rad protein assay.
Each 2-ml aliquot (drug and vehicle treated) was divided into 10 × 100-μl aliquots in 0.5-ml thin-walled PCR tubes, followed by incubation at a designated temperature (33, 37, 41, 45, 49, 53, 57, 61, 65, or 69°C) for 3 min, followed in turn by incubation at room temperature for 3 min before each sample was placed on ice. Each aliquot was centrifuged (100,000 × g, 20 min, 4°C), the supernatants were harvested, and the protein concentration was assessed.
All aspects of sample processing, peptide and protein identification and quantitation, and target identification were carried out as previously described ([15]). However, in this instance, proteins were identified by searching the MS and MS/MS data for the peptides against T. cruzi proteome Dm28c 2018 version 50 (https://tritrypdb.org/tritrypdb).

[5] = tested on: L. donovani promastigotes; assay: L. donovani promastigote drug sensitivity assay; assay type: cell-based, Leishmania donovani; conditions: for EC50: Leishmania donovani
Protocol: L. donovani promastigote ([35]), axenic amastigote ([25]), and T. brucei bloodstream form ([36]) drug sensitivity assays were carried out as previously described. HepG2 monolayers were washed twice in PBS, detached with 0.05% trypsin/EDTA, and then diluted with fully supplemented MEM growth medium. Cells were pelleted at 80 × g for 5 min and resuspended in fully supplemented growth medium. Cells were seeded into 96-well plates (5 × 10^4/well) and allowed to adhere prior to exposure to test compounds. Plates were incubated at 37°C in the presence of 5% CO2 for 72 h. After incubation, resazurin (20 μl of a 2.5-mg/ml^−1 stock solution) was added to each well, followed by incubation for a further 2 h prior to fluorescence being read as described above.

For `COc1ccc(NS(=O)(=O)c2cc(-c3cc(C)n[nH]3)ccc2C)cc1OC` [Compound 1], the EC50 ([1]; T. cruzi Intra-Vero, weighted mean, n ≥ 3, read-out: Mean compound 1 EC50 ± SD) was 1300 ± 200 nM, the EC50 ([1]; in Vero cells, cell line ME OE, (*) one biological replicate, read-out: EC50 values) was 800 ± 70 nM and the EC50 ([1]; in Vero cells, cell line RES 1, read-out: EC50 values) was 10000 ± 5000 nM. The EC50 ([1]; in Vero cells, cell line RES 5, read-out: EC50 values) was > 50000 nM, the EC50 ([1]; in Vero cells, cell line Wild-type, read-out: EC50 values) was 1000 ± 200 nM and the EC50 ([1]; in Vero cells, cell line β5 OE rescue R1, (*) one biological replicate, read-out: EC50 values) was 3000 ± 200 nM. For the same compound, the EC50 ([1]; in Vero cells, cell line β5 OE, read-out: EC50 values) was 1000 ± 200 nM, the EC50 ([1]; read-out: EC50 values, in Vero cells, cell line β4 F24L/I29M) was > 23000 nM and the EC50 ([1]; read-out: EC50 values, in Vero cells, cell line β5 D225N-OE, (*) one biological replicate) was 12000 ± 1400 nM. The “fold change versus WT” value ([1]; in Vero cells, cell line ME OE) was 1 fold, the “fold change versus WT” value ([1]; in Vero cells, cell line RES 1) was 8 fold and the “fold change versus WT” value ([1]; in Vero cells, cell line RES 5) was > 42 fold. For the same compound, the “fold change versus WT” value ([1]; in Vero cells, cell line Wild-type) was 1 fold, the “fold change versus WT” value ([1]; in Vero cells, cell line β4 F24L/I29M) was > 19 fold and the “fold change versus WT” value ([1]; in Vero cells, cell line β5 D225N-OE) was 10 fold. For the same compound, the “fold change versus WT” value ([1]; in Vero cells, cell line β5 OE) was 1 fold, the “fold change versus WT” value ([1]; in Vero cells, cell line β5 OE rescue R1) was 2 fold and the “impact on the thermal stability of mTcME” value [2] was “no impact”. The EC50 [3] was 100 to 8000 nM, the “increase in thermal stability of cTcME (mean ΔTm)” value ([4]; experiment 1, lysate, compound at 10× EC50 (20 μM)) was 8.8 °C and the ΔTm 1 ([4]; biological replicate 1) was 8.6 °C. The ΔTm 2 ([4]; biological replicate 1) was 9.08 °C, the ΔTm 1 ([4]; biological replicate 2) was 5.6 °C and the ΔTm 2 ([4]; biological replicate 2) was 3.73 °C. For the same compound, the “fold change versus WT” value ([5]; L. donovani cell line cLdME OE) was “=”, the “fold change versus WT” value ([5]; L. donovani compound 2-resistant line (G197S in β5 subunit)) was 260 fold and the EC99 in promastigotes ([5]; L. donovani promastigotes) was 300 nM. The EC50 ([5]; read-out: Compound 1 EC50 values, L. donovani cell line Compound 2 RES III (G197S in β5 subunit)) was 26000 ± 4000 nM, the EC50 ([5]; L. donovani cell line Wild-type, read-out: Compound 1 EC50 values) was 100 ± 5 nM and the EC50 ([5]; L. donovani promastigote, weighted mean, n ≥ 3, read-out: Mean compound 1 EC50 ± SD) was 100 ± 5 nM.
